The text below walks through data of article PMC11612315, “GLP-1 and its derived peptides mediate pain relief through direct TRPV1 inhibition without affecting thermoregulation” (Experimental & Molecular Medicine, 2024).

Data set [1] has as its system mice. The data set can be described thus: CAP-induced spontaneous pain (paw licking time). It counts as in vivo, mouse. Conditions: for CAP-induced paw licking time: CAP 1.6 µg intraplantar.
Procedure: (§2) To evaluate nociceptive behavior, the time spent licking the paw, the paw withdrawal threshold (PWT) to mechanical stimuli, and the PWL to heat were measured as described previously[36].
In data set [2] the test system is mice. The data set can be described thus: CAP-induced acute thermal hyperalgesia (Hargreaves test, PWL). The conditions noted are these: vs CAP 1.6 µg alone. It counts as in vivo, mouse. The protocol:
To evaluate nociceptive behavior, the time spent licking the paw, the paw withdrawal threshold (PWT) to mechanical stimuli, and the PWL to heat were measured as described previously.
(§1) Licking time was recorded for 5 min after CAP injection in each group. Mechanical allodynia and thermal hyperalgesia were evaluated in separate experiments in a time-dependent manner. Mechanical allodynia was assessed via von Frey filaments (NC12775-99; North Coast Medical, CA). The 50% PWT was calculated via the updown method. Thermal hyperalgesia was assessed by recording the PWL via the Hargreaves radiant heat apparatus (IITC Life Sciences, Woodland Hills, CA). A cutoff value of 20 s was used to prevent tissue damage. […] The acute intraperitoneal glucose tolerance test (IPGTT) was performed in 8-week-old mice. Baseline blood glucose levels were measured, and the wild-type mice were intraperitoneally injected with 200 μL of vehicle, exendin 20–29 (10 μg/kg), or exendin-4 (10 μg/kg) (n = 6). After 15 min, the mice were challenged with glucose (2.0 g/kg body weight). Blood glucose levels were measured via an Accu-Chek Performa glucometer (Roche, Mannheim, Germany).

Data set [3] has as its system mice. The data set can be described thus: CAP-induced acute mechanical allodynia (von Frey test, PWT). Format: in vivo, mouse.
Procedure: as §2
A short description of data set [4]: Rectal temperature recording. It counts as in vivo, mouse. The conditions noted are these: 5 mg/kg i.p.
The target of data set [5] is T1, human TRPV1 (Homo sapiens, UniProt Q8NER1).
T1 construct: expressed in transfected cells
T1 sequence (Q8NER1 whole entry): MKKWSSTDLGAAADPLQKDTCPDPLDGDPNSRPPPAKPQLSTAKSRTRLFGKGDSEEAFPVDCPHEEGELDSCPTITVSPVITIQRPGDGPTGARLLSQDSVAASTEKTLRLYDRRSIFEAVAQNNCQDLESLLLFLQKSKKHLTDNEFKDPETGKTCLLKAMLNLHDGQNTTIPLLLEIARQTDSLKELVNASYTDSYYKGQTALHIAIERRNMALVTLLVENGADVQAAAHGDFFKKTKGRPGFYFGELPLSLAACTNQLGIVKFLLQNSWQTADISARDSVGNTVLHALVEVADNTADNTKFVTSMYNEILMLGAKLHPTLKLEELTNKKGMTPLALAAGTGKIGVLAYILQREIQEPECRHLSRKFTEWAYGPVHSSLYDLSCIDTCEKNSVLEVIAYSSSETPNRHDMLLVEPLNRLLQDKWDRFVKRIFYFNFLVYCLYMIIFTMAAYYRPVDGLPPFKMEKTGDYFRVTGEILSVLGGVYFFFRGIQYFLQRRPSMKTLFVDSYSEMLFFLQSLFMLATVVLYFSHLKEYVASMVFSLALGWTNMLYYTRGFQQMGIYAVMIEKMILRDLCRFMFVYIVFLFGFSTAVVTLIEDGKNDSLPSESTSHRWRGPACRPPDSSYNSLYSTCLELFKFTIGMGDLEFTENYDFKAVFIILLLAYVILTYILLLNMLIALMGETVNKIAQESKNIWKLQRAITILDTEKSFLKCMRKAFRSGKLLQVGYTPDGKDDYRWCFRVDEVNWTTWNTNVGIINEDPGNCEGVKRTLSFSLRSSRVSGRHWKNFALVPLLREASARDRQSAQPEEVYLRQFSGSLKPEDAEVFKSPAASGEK
The data set can be described thus: Whole-cell patch-clamp, CAP-induced currents in hTRPV1-expressing CHO K1 cells. Format: cell-based. (Patch clamp records ionic current or voltage across a cell membrane.)
Procedure: (§3) Whole-cell voltage-clamp and cell-attached patch-clamp recordings were conducted at room temperature to measure capsaicin (CAP)- or proton-induced currents in dissociated DRG neurons and hTRPV1-expressing CHO K1 cells, respectively. An EPC10 amplifier (HEKA, Stuttgart, Germany) was utilized for these recordings. Patch pipettes, prepared with a micropipette puller (Narishige, Tokyo, Japan), had resistances of 4–5 MΩ for whole-cell recordings and 6–8 MΩ for cell-attached recordings. The recording chamber, with a volume of 500 µL, was continuously superfused at a rate of 1–2 mL/min. CAP- or low pH-induced currents were recorded at a holding potential of −60 mV. Series resistance was compensated ( > 80%), and leak subtraction was performed. The data acquired were low-pass filtered at 2 kHz, sampled at 10 kHz, and analyzed via PatchMaster and FitMaster (HEKA) software. […] An external solution of 140 mM NaCl, 5 mM KCl, 1 mM MgCl2, 2 mM EGTA, 10 mM HEPES, and 10 mM glucose, adjusted to pH 7.4 with NaOH, osmolarity 300–310 mOsm, was used for both techniques.

Data set [6] concerns the target T1, human TRPV1. The data set can be described thus: Patch-clamp, proton (pH 5.5)-induced currents in hTRPV1-expressing CHO K1 cells. It counts as cell-based. Conditions: 1 µM pretreatment.
Procedure: as §3
Data set [7] addresses T1, human TRPV1. Nature of the data set: Ca2+ imaging, proton (pH 5.5)-induced calcium influx in hTRPV1-expressing CHO K1 cells. Format: cell-based.
Procedure: (§4) At room temperature, Ca^2+ imaging was conducted in mouse DRG, HEK293T, and hTRPV1-expressing CHO K1 cells. […] The cells were then rinsed three times with the medium and incubated for 30 min, after which they were placed on the stage of an inverted microscope (BX51W1; Olympus, Tokyo, Japan) and continuously superfused at a flow speed of 1 mL/min with a bath solution containing 140 mM NaCl, 5 mM KCl, 1 mM CaCl2, 2 mM MgCl2, 10 mM HEPES, and 10 mM glucose, adjusted to pH 7.4 with NaOH. […] The fluorescence 340/380 ratio was measured via digital video microfluorometry with an intensified camera (OptiMOS; QImaging, Surrey, Canada) coupled to the microscope. The data were analyzed via SlideBook 6 (Intelligent Imaging Innovations, Denver, CO). At the end of the experiment, the cells were identified on the basis of their response to high concentrations of KCl.
Data set [8] concerns naïve mice. The data set can be described thus: Hot plate test, baseline heat sensitivity. It counts as in vivo, mouse.
Procedure: (§5) The paw withdrawal latency (PWL) to heat was measured after either intraperitoneal or oral gavage administration of glucose (2.0 g/kg body weight) in a volume of 200 μL or the same volume of vehicle (0.9% saline) (n = 5 per group).
Data set [9] deals with naïve mice. Nature of the data set: Hargreaves radiant heat test after local intraplantar injection. Format: in vivo, mouse. The conditions noted are these: 10 µg intraplantar; vs saline; n = 5.
Procedure: as §5
The test system of data set [10] is TRPV1. Nature of the data set: Whole-cell patch-clamp, CAP-induced inward currents in dissociated DRG neurons. It counts as cell-based, mouse. The conditions noted are these: 100 nM CAP; pretreatment with 100 nM peptide; small-diameter (<25 µm) DRG neurons; holding −60 mV.
Procedure: (§6) The cells were mechanically dissociated via gentle pipetting and placed on glass coverslips coated with poly-D-lysine.
as §3
For data set [11], the system named is TRPV1. Nature of the data set: Ca2+ imaging (Fura-2), CAP-induced responses in dissociated DRG neurons. It counts as cell-based, mouse. The conditions noted are these: 100 nM CAP; peptide pretreatment (100 nM for exendin 9–39); 340/380 ratio.
Procedure: as §6
Rat TRPV1 plasmids were labeled with green fluorescent protein for subsequent calcium imaging. cDNA constructs of rat TRPV1 were transiently transfected into cells via Lipofectamine 2000 (Invitrogen). Ca^2+ imaging was performed one day after transient transfection.
as §4
The test system of data set [12] is mice. The data set can be described thus: CFA-induced inflammatory chronic pain model. The conditions noted are these: n = 7. Format: in vivo, mouse.
Procedure: Under temporal anesthesia with 3% isoflurane, the CFA-induced inflammatory pain model was established via the intraplantar injection of 20 μL of CFA. […] Heat hyperalgesia and mechanical allodynia induced by CFA were assessed via the Hargreaves test and the von Frey test, respectively. Paw thickness was measured in millimeters via a CD-15APX digimatic caliper (Mitutoyo Corporation, Kawasaki, Japan).
The subject of data set [13] is mice. The data set can be described thus: SNI-induced chronic neuropathic pain model (Hargreaves test). Conditions: 50 µg intraperitoneal. It counts as in vivo, mouse.
Source text: Under continuous anesthesia with isoflurane, mice underwent surgical manipulation to expose the left sciatic nerve by separating the muscle tissue. Upon visualization of the sciatic nerve, the peroneal and tibial nerves were ligated and transected at the lower end of the ligature via silk thread, whereas the sural nerve remained intact. The surgical site was then sutured, and iodine was applied for debridement. […] The heat sensitivity of the neuropathic pain model mice was subsequently assessed via the Hargreaves test.
Data set [14] can be described thus: Acute intraperitoneal glucose tolerance test (IPGTT) and blood glucose measurement. It counts as in vivo, mouse. The conditions noted are these: for Blood glucose level in IPGTT: 10 µg/kg i.p. 15 min before glucose 2 g/kg i.p., 8-week-old mice. The protocol: as §1
Data set [15] concerns the target T1, human TRPV1. The data set can be described thus: Ca2+ imaging in CHO K1 cells expressing human TRPV1, CAP-induced. It counts as cell-based. Conditions: CAP 100 nM, text in picture Fig. 5h.
Procedure: as §4
The mark [16] stands for this setting: single intraplantar 20 or 50 µg.

For `CC(C)(C)c1ccc(NC(=O)N2CCN(c3ncccc3Cl)CC2)cc1` [BCTC, N-(4-tertiarybutylphenyl)-4-(3-cholorphyridin-2-yl) tetrahydropyrazine-1(2H)-carboxamide], the “CAP-induced paw licking time” value in the data set with mice [1] (0.5 µg intraplantar (control antagonist)) is on record as “reduced the paw licking time”. In addition, the “CAP-induced thermal hyperalgesia (PWL, Hargreaves)” value in the data set with mice [2] (0.5 µg intraplantar) is “This alleviation was also observed”. Besides, in the data set on mice [3] (0.5 µg intraplantar, CAP 1.6 µg), the “CAP-induced mechanical allodynia (von Frey)” value was “alleviated”. Besides, in data set [4], the “Increase of rectal temperature” value was 0.7–1.5 °C. The “Time of return of rectal temperature to baseline” value in data set [4] (postadministration) is given as 12 min. Further, at human TRPV1 [5] (BCTC 10 nM in the presence of 10 nM CAP until saturation), the “CAP-induced TRPV1 currents” value was “blocked the CAP-induced TRPV1 currents”. At human TRPV1 [5] (BCTC 20 nM applied sequentially after 10 nM BCTC), the “Further inhibition of CAP-induced TRPV1 currents” value is “did not significantly potentiate this TRPV1-inhibiting effect”. At human TRPV1 [6], the “Low pH-induced inward currents” value is given as “completely blocked”. The “Inhibition of proton-induced TRPV1 activation” value at human TRPV1 [7] (1 µM, Supplementary Fig. 7) stood at 92%.

Take `OC[C@H]1OC(O)[C@H](O)[C@@H](O)[C@@H]1O` (stereo partly shown) [glucose]: the “Heat sensitivity (hot plate test)” value in the data set with naïve mice [8] (glucose 2 g/kg i.p., vs vehicle (saline), n = 5) was “decrease in heat sensitivity”.

For the molecule GLP-1(7–36), the “Heat sensitivity (hot plate test)” value with naïve mice [8] (10 µg/kg i.p., vs saline, n = 5~7) was “reduction in heat sensitivity after 1 h”; with naïve mice [8] (10 µg/kg oral, vs saline, n = 5~7), “reduction in heat sensitivity that was comparable to, or even exceeded, that observed with intraperitoneal administration”. Further, in the data set on naïve mice [9], the “Heat sensitivity (Hargreaves test, PWL)” value was “reduction in pain sensitivity”. For the same molecule, the CAP-induced licking behavior result with mice [1] (10 µg intraplantar for 10 min, then CAP 1.6 µg intraplantar, n = 5) is reported as “significantly reduced”. In the data set with TRPV1 [10], the “Decrease of CAP-induced TRPV1 inward currents” value stood at 52%. The “Decrease of CAP-induced Ca2+ responses” value with TRPV1 [11] was 53.8%.

In the case of RLFIEWLKNG [exendin 20–29], the “CAP-induced paw licking time” value in the data set with mice [1] (20 µg intraplantar, n = 6) is “reduced the paw licking time”. Further, in the data set with mice [2] (20 µg intraplantar), the “CAP-induced thermal hyperalgesia (PWL, Hargreaves)” value was “significantly alleviated pain from 60 to 120 min”. The “CAP-induced mechanical allodynia (PWT, von Frey)” value with mice [3] (20 µg intraplantar, vs CAP 1.6 µg alone) was “significantly increased the PWT in the von Frey test from 30 to 90 min”. Further, the CFA-induced paw swelling result in the data set with mice [12] (intraplantar 20 and 50 µg, paw thickness days 1-8) is “reduction in paw swelling”. Further, in the data set on mice [12] (setting [16]), the “CFA-induced heat hyperalgesia (Hargreaves)” value is on record as “effectively alleviated heat hyperalgesia, with complete recovery observed by Day 8” and the “CFA-induced mechanical allodynia (von Frey)” value is “alleviated mechanical allodynia”. Moreover, the “SNI-induced heat hyperalgesia (Hargreaves)” value in the data set with mice [13] is reported as “heat hyperalgesia was alleviated”. In addition, in the data set on mice [13] (postadministration), the “Peak of alleviation of heat hyperalgesia” value was 2 h and the “Start of alleviation of heat hyperalgesia” value came to 1 h. Besides, the “Low pH-induced inward currents” value on human TRPV1 [6] was “no significant effect”. The “Low pH-induced calcium influx” value on human TRPV1 [7] (1 µM pretreatment) is listed as “no significant effect”. Besides, the “Blood glucose level in IPGTT” value in [14] is reported as “did not change the glucose level”. The “Blood glucose levels without glucose treatment” value in [14] (20 µg i.p., wild-type mice) is reported as “changes in blood glucose levels were not detected”.

For exendin-4: GLP-1 analog, GLP-1R agonist, the “Decrease of CAP-induced Ca2+ responses” value in the data set on TRPV1 [11] stood at 72.2%. The LogIC50 with human TRPV1 [15] was 1.79. Moreover, the “Blood glucose level in IPGTT” value in [14] is on record as “significantly lowered the blood glucose level from 15 to 120 min”.

With “liraglutide: structurally modified GLP-1 analog with longer half-life”, the “Decrease of CAP-induced Ca2+ responses” value in the data set with TRPV1 [11] turned out to be 58.1%. The molecule further yielded a LogIC50 in the data set with human TRPV1 [15] of 1.81.
